Laboratory results: paper PMC5218480 (PLoS ONE, 2017)

Tested on: MV-4-11 cells
Assay: Gene expression microarray analysis (Affymetrix PrimeView) and GSEA
Type: cell-based, human
Design: RFU PODN (11730768_x_at) / Fold change /veh PODN (11730768_x_at) / RFU LINC00158 (11744669_a_at) / Fold change /veh LINC00158 (11744669_a_at) / RFU DUSP10 (11751237_a_at) / Fold change /veh DUSP10 (11751237_a_at) / RFU ID3 (11757404_x_at) / Fold change /veh ID3 (11757404_x_at) / RFU PLEKHG5 (11737974_s_at) / Fold change /veh PLEKHG5 (11737974_s_at) / RFU LRRC4B (11730491_at) / Fold change /veh LRRC4B (11730491_at) / RFU GIMAP4 (11747438_a_at) / Fold change /veh GIMAP4 (11747438_a_at) / RFU KRT8 (11758183_x_at) / Fold change /veh KRT8 (11758183_x_at) / RFU CNN1 (11734310_a_at) / Fold change /veh CNN1 (11734310_a_at) / RFU VPS37D (11726825_at) / Fold change /veh VPS37D (11726825_at) / RFU C10orf10 (11716522_x_at) / Fold change /veh C10orf10 (11716522_x_at) / RFU KIR2DL2 /// KIR2DL4 /// KIR2DL5A /// KIR2DL5B /// KIR2DS1 /// KIR2DS2 /// KIR2DS3 /// KIR2DS4 /// KIR3DL3 /// KIR3DL3 /// KIR3DS1 (11738374_at) / Fold change /veh KIR2DL2 /// KIR2DL4 /// KIR2DL5A /// KIR2DL5B /// KIR2DS1 /// KIR2DS2 /// KIR2DS3 /// KIR2DS4 /// KIR3DL3 /// KIR3DL3 /// KIR3DS1 (11738374_at) / RFU C1QL1 (11718748_at) / Fold change /veh C1QL1 (11718748_at) / RFU TMPRSS4 (11747572_a_at) / Fold change /veh TMPRSS4 (11747572_a_at) / RFU HAMP (11756126_x_at) / Fold change /veh HAMP (11756126_x_at) / RFU RNFT2 (11725882_a_at) / Fold change /veh RNFT2 (11725882_a_at) / RFU NR4A2 (11747474_a_at) / Fold change /veh NR4A2 (11747474_a_at) / RFU ABCC12 (11746883_a_at) / Fold change /veh ABCC12 (11746883_a_at) / RFU TMEM136 (11760407_x_at) / Fold change /veh TMEM136 (11760407_x_at) / RFU CLDN22 /// WWC2 (11732394_at) / Fold change /veh CLDN22 /// WWC2 (11732394_at) / RFU HLA-DPB1 (11760878_x_at) / Fold change /veh HLA-DPB1 (11760878_x_at) / RFU SPINT1 (11716480_a_at) / Fold change /veh SPINT1 (11716480_a_at) / RFU GAP43 (11754022_s_at) / Fold change /veh GAP43 (11754022_s_at) / RFU A4GNT (11735810_at) / Fold change /veh A4GNT (11735810_at) / RFU PRB3 (11715151_x_at) / Fold change /veh PRB3 (11715151_x_at) / RFU TUBB4B (11761932_at) / Fold change /veh TUBB4B (11761932_at) / RFU CAPN14 (11732068_a_at) / Fold change /veh CAPN14 (11732068_a_at) / RFU TMCC2 (11721928_a_at) / Fold change /veh TMCC2 (11721928_a_at) / RFU IRGQ (11745062_a_at) / Fold change /veh IRGQ (11745062_a_at) / RFU FAM174B (11720279_a_at) / Fold change /veh FAM174B (11720279_a_at) / RFU TMPRSS4 (11748680_a_at) / Fold change /veh TMPRSS4 (11748680_a_at) / RFU FAM212B (11763350_a_at) / Fold change /veh FAM212B (11763350_a_at) / RFU PLEKHG5 (11743358_a_at) / Fold change /veh PLEKHG5 (11743358_a_at) / RFU ZSCAN30 (11745921_a_at) / Fold change /veh ZSCAN30 (11745921_a_at) / RFU CMKLR1 (11741424_a_at) / Fold change /veh CMKLR1 (11741424_a_at) / RFU LOC101060620 /// MAPK8IP1 (11723275_at) / Fold change /veh LOC101060620 /// MAPK8IP1 (11723275_at) / RFU SPTSSB (11747773_x_at) / Fold change /veh SPTSSB (11747773_x_at) / RFU PRSS12 (11739890_at) / Fold change /veh PRSS12 (11739890_at) / RFU BIN1 (11741810_x_at) / Fold change /veh BIN1 (11741810_x_at) / RFU WNT11 (11732464_a_at) / Fold change /veh WNT11 (11732464_a_at) / RFU C10orf10 (11716521_a_at) / Fold change /veh C10orf10 (11716521_a_at) / RFU C5orf56 (11738089_at) / Fold change /veh C5orf56 (11738089_at) / RFU CYB561 (11721691_x_at) / Fold change /veh CYB561 (11721691_x_at) / RFU ANKRD19P (11752326_a_at) / Fold change /veh ANKRD19P (11752326_a_at) / RFU OR2T12 /// OR2T33 /// OR2T8 (11738714_s_at) / Fold change /veh OR2T12 /// OR2T33 /// OR2T8 (11738714_s_at) / RFU VCAN (11748164_a_at) / Fold change /veh VCAN (11748164_a_at) / RFU JSRP1 (11732532_at) / Fold change /veh JSRP1 (11732532_at) / RFU KRTAP10-11 (11738290_x_at) / Fold change /veh KRTAP10-11 (11738290_x_at) / RFU MYO3A (11730013_a_at) / Fold change /veh MYO3A (11730013_a_at) / RFU EBF3 (11725865_a_at) / Fold change /veh EBF3 (11725865_a_at) / RFU CAMK2N1 (11719241_x_at) / Fold change /veh CAMK2N1 (11719241_x_at) / RFU C5orf56 (11738088_a_at) / Fold change /veh C5orf56 (11738088_a_at) / RFU OLFML3 (11715873_a_at) / Fold change /veh OLFML3 (11715873_a_at) / RFU LOC100653217 /// NTM (11731650_a_at) / Fold change /veh LOC100653217 /// NTM (11731650_a_at) / RFU MAPK11 (11762145_a_at) / Fold change /veh MAPK11 (11762145_a_at) / RFU FIZ1 (11724087_x_at) / Fold change /veh FIZ1 (11724087_x_at) / RFU OASL (11726364_x_at) / Fold change /veh OASL (11726364_x_at) / RFU SOX15 (11748057_x_at) / Fold change /veh SOX15 (11748057_x_at) / RFU CD79A (11719716_a_at) / Fold change /veh CD79A (11719716_a_at) / RFU HIST1H1D (11736915_at) / Fold change /veh HIST1H1D (11736915_at) / RFU CASKIN2 (11723855_a_at) / Fold change /veh CASKIN2 (11723855_a_at) / RFU LOC730098 (11760151_x_at) / Fold change /veh LOC730098 (11760151_x_at) / RFU OR4N2 (11742367_at) / Fold change /veh OR4N2 (11742367_at) / RFU PRRT2 (11749266_a_at) / Fold change /veh PRRT2 (11749266_a_at) / RFU SNX32 (11753110_a_at) / Fold change /veh SNX32 (11753110_a_at) / RFU CDHR5 (11726645_a_at) / Fold change /veh CDHR5 (11726645_a_at) / RFU RCAN1 (11760418_a_at) / Fold change /veh RCAN1 (11760418_a_at) / RFU FAM167A (11723789_a_at) / Fold change /veh FAM167A (11723789_a_at) / RFU FAM26E (11764081_at) / Fold change /veh FAM26E (11764081_at) / RFU ISYNA1 (11749810_s_at) / Fold change /veh ISYNA1 (11749810_s_at) / RFU ACY1 (11761880_at) / Fold change /veh ACY1 (11761880_at) / RFU 11764098_at / Fold change /veh 11764098_at / RFU SAMD14 (11745864_x_at) / Fold change /veh SAMD14 (11745864_x_at) / RFU NPB (11741838_a_at) / Fold change /veh NPB (11741838_a_at) / RFU TMPRSS6 (11731388_a_at) / Fold change /veh TMPRSS6 (11731388_a_at) / RFU KRTAP10-2 (11738614_at) / Fold change /veh KRTAP10-2 (11738614_at) / RFU ARHGAP8 /// PRR5-ARHGAP8 (11727945_x_at) / Fold change /veh ARHGAP8 /// PRR5-ARHGAP8 (11727945_x_at) / RFU KRTAP5-7 /// NADSYN1 (11734609_at) / Fold change /veh KRTAP5-7 /// NADSYN1 (11734609_at) / RFU RASL12 (11751679_a_at) / Fold change /veh RASL12 (11751679_a_at) / RFU CDKN2B (11736163_a_at) / Fold change /veh CDKN2B (11736163_a_at) / RFU PRF1 (11729649_at) / Fold change /veh PRF1 (11729649_at) / RFU, ZNF638 /// ZNF638-IT1 / Fold change vs veh, ZNF638 /// ZNF638-IT1 / RFU, PANK3 / Fold change vs veh, PANK3 / RFU, SH3YL1 / Fold change vs veh, SH3YL1 / RFU, ZEB2 / Fold change vs veh, ZEB2 / RFU, NRIP1 / Fold change vs veh, NRIP1 / RFU, PTTG1IP / Fold change vs veh, PTTG1IP / RFU, CAPN2 / Fold change vs veh, CAPN2 / RFU, MED14 / Fold change vs veh, MED14 / RFU, SNORA58 / Fold change vs veh, SNORA58 / RFU, C1orf63 / Fold change vs veh, C1orf63 / RFU, LRRFIP1 / Fold change vs veh, LRRFIP1 / RFU, NDUFAF7 / Fold change vs veh, NDUFAF7 / RFU, SLC12A2 / Fold change vs veh, SLC12A2 / RFU, IBTK / Fold change vs veh, IBTK / RFU, ESF1 / Fold change vs veh, ESF1 / Fold change vs veh, TMEM50B / RFU, TAOK1 / Fold change vs veh, TAOK1 / RFU, ACBD3 / Fold change vs veh, ACBD3 / RFU, TMA16 / Fold change vs veh, TMA16 / RFU, RWDD3 / Fold change vs veh, RWDD3 / RFU, BCAT1 / Fold change vs veh, BCAT1 / RFU, EDEM3 / Fold change vs veh, EDEM3 / RFU, TMEM33 / Fold change vs veh, TMEM33 / RFU, WDR75 / Fold change vs veh, WDR75 / RFU, AHCTF1 / Fold change vs veh, AHCTF1 / RFU, TFRC / Fold change vs veh, TFRC / RFU, ZDHHC17 / Fold change vs veh, ZDHHC17 / RFU, NOM1 / Fold change vs veh, NOM1 / RFU, ARL8B / Fold change vs veh, ARL8B / RFU, ZBTB11 / Fold change vs veh, ZBTB11 / RFU, TAMM41 / Fold change vs veh, TAMM41 / RFU, KIAA1704 /// LOC100996395 / Fold change vs veh, KIAA1704 /// LOC100996395 / RFU, ING1 / Fold change vs veh, ING1 / RFU, TRMT61B / Fold change vs veh, TRMT61B / RFU, FUBP3 / Fold change vs veh, FUBP3 / RFU, TP53 / Fold change vs veh, TP53 / RFU, TNKS2 / Fold change vs veh, TNKS2 / RFU, ZFP14 / Fold change vs veh, ZFP14 / RFU, ACTR2 / Fold change vs veh, ACTR2 / RFU, PPP3R1 / Fold change vs veh, PPP3R1 / RFU, PIK3R1 / Fold change vs veh, PIK3R1 / RFU, HNRNPA1 / Fold change vs veh, HNRNPA1 / RFU, RNF170 / Fold change vs veh, RNF170 / RFU, ZNF28 / Fold change vs veh, ZNF28 / RFU, RNGTT / Fold change vs veh, RNGTT / RFU, OGT / Fold change vs veh, OGT / RFU, BRD1 / Fold change vs veh, BRD1 / RFU, MARS / Fold change vs veh, MARS / RFU, ZNF655 / Fold change vs veh, ZNF655 / RFU, FAHD1 / Fold change vs veh, FAHD1 / RFU, BDP1 / Fold change vs veh, BDP1 / RFU, LRRCC1 / Fold change vs veh, LRRCC1 / RFU, ARID1A / Fold change vs veh, ARID1A / RFU, ZNF146 / Fold change vs veh, ZNF146 / RFU, ZNF330 / Fold change vs veh, ZNF330 / RFU, GPN3 / Fold change vs veh, GPN3 / RFU, C9orf123 / Fold change vs veh, C9orf123 / RFU, N4BP2L2 / Fold change vs veh, N4BP2L2 / RFU, ARFIP1 / Fold change vs veh, ARFIP1 / RFU, FAM179B / Fold change vs veh, FAM179B / RFU, BCL10 / Fold change vs veh, BCL10 / RFU, UHRF1BP1L / Fold change vs veh, UHRF1BP1L / RFU, BET1 / Fold change vs veh, BET1 / RFU, CNOT2 / Fold change vs veh, CNOT2 / RFU, ZNF268 / Fold change vs veh, ZNF268 / Fold change vs veh, ZNF507 / RFU, DGCR2 / Fold change vs veh, DGCR2 / RFU, WDSUB1 / Fold change vs veh, WDSUB1 / Fold change vs veh, HSP90B1 /// MIR3652 / RFU, ADSS / Fold change vs veh, ADSS / RFU, GK / Fold change vs veh, GK / RFU, ZNF148 / Fold change vs veh, ZNF148 / RFU, TAF9 / Fold change vs veh, TAF9 / RFU, SLC1A5 / Fold change vs veh, SLC1A5 / RFU, SLMO2 / Fold change vs veh, SLMO2 / RFU, ABCC4 / Fold change vs veh, ABCC4 / RFU, LOC101060439 /// RAP1B / Fold change vs veh, LOC101060439 /// RAP1B / RFU, RFX7 / Fold change vs veh, RFX7 / RFU, GTPBP10 / Fold change vs veh, GTPBP10 / RFU, CNEP1R1 / Fold change vs veh, CNEP1R1 / RFU, BIVM-ERCC5 /// ERCC5 / Fold change vs veh, BIVM-ERCC5 /// ERCC5 / RFU, ILF3 / Fold change vs veh, ILF3 / RFU 11762660_at / Fold change /veh 11762660_at / RFU VCAN (11757783_s_at) / Fold change /veh VCAN (11757783_s_at) / RFU DDX43 (11728927_at) / Fold change /veh DDX43 (11728927_at) / RFU KRT8 (11758188_x_at) / Fold change /veh KRT8 (11758188_x_at) / RFU NKD1 (11759106_at) / Fold change /veh NKD1 (11759106_at) / RFU SRD5A1 (11742802_a_at) / Fold change /veh SRD5A1 (11742802_a_at) / RFU TPSAB1 /// TPSB2 (11721975_s_at) / Fold change /veh TPSAB1 /// TPSB2 (11721975_s_at) / RFU GSTM3 (11746129_a_at) / Fold change /veh GSTM3 (11746129_a_at) / RFU IL23R (11737362_x_at) / Fold change /veh IL23R (11737362_x_at) / RFU TMEM51 (11727254_a_at) / Fold change /veh TMEM51 (11727254_a_at) / RFU PIWIL2 (11732686_x_at) / Fold change /veh PIWIL2 (11732686_x_at) / RFU ORM1 (11744905_x_at) / Fold change /veh ORM1 (11744905_x_at) / RFU CCDC152 (11743942_at) / Fold change /veh CCDC152 (11743942_at) / RFU ECM1 (11717891_a_at) / Fold change /veh ECM1 (11717891_a_at) / RFU IL23R (11748794_a_at) / Fold change /veh IL23R (11748794_a_at) / RFU TNFAIP8L3 (11732012_x_at) / Fold change /veh TNFAIP8L3 (11732012_x_at) / RFU MBOAT4 (11741988_at) / Fold change /veh MBOAT4 (11741988_at) / RFU 11764193_at / Fold change /veh 11764193_at / RFU TMEM53 (11763286_at) / Fold change /veh TMEM53 (11763286_at) / RFU MAGEB2 (11727129_at) / Fold change /veh MAGEB2 (11727129_at) / RFU TMEM200A (11744735_a_at) / Fold change /veh TMEM200A (11744735_a_at) / RFU CCDC152 (11751479_a_at) / Fold change /veh CCDC152 (11751479_a_at) / RFU FAM211A (11726209_a_at) / Fold change /veh FAM211A (11726209_a_at) / RFU RGS16 (11746705_a_at) / Fold change /veh RGS16 (11746705_a_at) / RFU VCAN (11755009_s_at) / Fold change /veh VCAN (11755009_s_at) / RFU RHOB (11743442_s_at) / Fold change /veh RHOB (11743442_s_at) / RFU RGS16 (11720943_a_at) / Fold change /veh RGS16 (11720943_a_at) / RFU RGS16 (11720944_at) / Fold change /veh RGS16 (11720944_at) / RFU, VPS4B / Fold change vs veh, VPS4B / RFU, CREB1 / Fold change vs veh, CREB1 / RFU, DNAJC13 / Fold change vs veh, DNAJC13 / RFU, GNAQ / Fold change vs veh, GNAQ / RFU, CDK5R1 / Fold change vs veh, CDK5R1 / RFU, ZRANB3 / Fold change vs veh, ZRANB3 / RFU, CUL4A / Fold change vs veh, CUL4A / RFU, CCNY / Fold change vs veh, CCNY / RFU, UFL1 / Fold change vs veh, UFL1 / RFU, COG3 / Fold change vs veh, COG3 / RFU, DIAPH2 / Fold change vs veh, DIAPH2 / RFU, SKA2 / Fold change vs veh, SKA2 / RFU, AFF3 / Fold change vs veh, AFF3 / RFU, LMF1 / Fold change vs veh, LMF1 / RFU, IPO11 / Fold change vs veh, IPO11 / RFU, DFFB / Fold change vs veh, DFFB / RFU, FOXP1 / Fold change vs veh, FOXP1 / RFU, CARD8 / Fold change vs veh, CARD8 / RFU, STRN3 / Fold change vs veh, STRN3 / RFU, ADK / Fold change vs veh, ADK / RFU, RASSF2 / Fold change vs veh, RASSF2 / RFU, WIPF1 / Fold change vs veh, WIPF1 / RFU, LARP1B / Fold change vs veh, LARP1B / RFU, RASA1 / Fold change vs veh, RASA1 / RFU, RB1 / Fold change vs veh, RB1 / RFU, PPFIA1 / Fold change vs veh, PPFIA1 / RFU, MAT2A / Fold change vs veh, MAT2A / RFU, CCT5 / Fold change vs veh, CCT5 / RFU, WDR92 / Fold change vs veh, WDR92 / RFU, CUX1 / Fold change vs veh, CUX1 / RFU, TTC7A / Fold change vs veh, TTC7A / RFU, TMEM135 / Fold change vs veh, TMEM135 / RFU, DEPTOR / Fold change vs veh, DEPTOR / RFU, CPM / Fold change vs veh, CPM / RFU, DNAJB6 / Fold change vs veh, DNAJB6 / RFU, CACNA2D3 / Fold change vs veh, CACNA2D3 / RFU, DTX4 / Fold change vs veh, DTX4 / RFU, TFCP2 / Fold change vs veh, TFCP2 / RFU, GMCL1 /// GMCL1P1 / Fold change vs veh, GMCL1 /// GMCL1P1 / RFU, AEBP2 / Fold change vs veh, AEBP2 / RFU, SNHG1 /// SNORD22 /// SNORD25 /// SNORD26 /// SNORD27 /// SNORD28 /// SNORD29 /// SNORD31 / Fold change vs veh, SNHG1 /// SNORD22 /// SNORD25 /// SNORD26 /// SNORD27 /// SNORD28 /// SNORD29 /// SNORD31 / Fold change (Aza/veh), C12orf56 (ProbeSet 11735607_a_at) / Fold change (ACY-1035/veh), C12orf56 (ProbeSet 11735607_a_at) / Fold change (Aza/veh), FGFR1OP (ProbeSet 11751329_s_at) / Fold change (ACY-1035/veh), FGFR1OP (ProbeSet 11751329_s_at) / Fold change (Aza/veh), VPS36 (ProbeSet 11739960_a_at) / Fold change (ACY-1035/veh), VPS36 (ProbeSet 11739960_a_at) / RFU SYPL1 (11715823_x_at) / Fold change /veh SYPL1 (11715823_x_at) / RFU IGFBP7 (11715501_s_at) / Fold change /veh IGFBP7 (11715501_s_at) / RFU REEP3 (11722064_at) / Fold change /veh REEP3 (11722064_at) / RFU IGLL1 (11728026_x_at) / Fold change /veh IGLL1 (11728026_x_at): dose or concentration left out as unconfirmed
Details: MV-4-11 cells, 48 hours

Nc1ncn([C@@H]2O[C@H](CO)[C@@H](O)[C@H]2O)c(=O)n1 [azacitidine]
RFU LINC00158 (11744669_a_at): 7.44 RFU
